Test results published in patent US4973576A, “Bisphophonic acid derivatives and pharmaceutical compositions containing the same” (Yamanouchi Pharmaceutical Co., Ltd., priority 1987, dated 1990).
Several values for one entry are separate records, joined by “and”; a condition that tells them apart may be missing. Equal entries are not always repeated.

Tests used:
[1] = tested on: immobilization-induced atrophy of bone; assay: Inhibition of bone resorption: immobilization-induced (neurectomy) atrophy of bone in rats; type: in vivo, Wistar rats; conditions: for Left humerus Ashed weight / Left humerus Ashed weight / Dry weight / Left humerus Dry weight: 2 weeks; for Difference of Bone Ash Content (b): nontreated minus treated humerus ashed weight; for Difference of Bone Weight (a): nontreated minus treated humerus dry weight
[2] = Acute toxicity test in rats; type: in vivo; conditions: sc, 10 mg/kg/day for continuous two weeks
Description: The compound of Manufacture Example 1 was subcutaneously injected to rats in an amount of 10 mg/kg/day for continuous two weeks, and no rats died.

adjuvant arthritis [3] = assay: Experiment (3)-I: therapeutic effect on adjuvant arthritis in rats; type: in vivo, male Lewis rats
Description: (§1) Specifically, for investigation of the anti-arthritic effect, experimental models of adjuvant arthritis which is resemble to rheumatoid arthritis in human were used in two test methods. In one method to test the therapeutic effect of the compounds, the compounds to be tested were administered to the animals already having the adjuvant arthritis. In the other method to test the prophylactic effect of the compounds, these were administered after the adjuvant administration, and the expression and progress of the resulting arthritis, if any, was observed.
0.1 ml of a suspension of dry dead cells of Mycobacterium butyricum as suspended in liquid paraffin in a proportion of 6 mg/ml was subcutaneously injected to male Lewis rats (7-week) in the tail. After 17 or 18 days, the thickness of the both hind paws was measured. One group comprising six rats in which the arthritis was noticeably observed was isolated. After the grouping day, the compound to be tested was subcutaneously or orally administered once a day for 14 days to the rats. Next day after the last administration, the thickness of the soles of the both hind legs was again measured.
(§2) For the Experiments (3)-I and (3)-II, the compounds of the present invention were dissolved, using sodium hydroxide and hydrochloric acid in physiological saline (pH 7.4), for subcutaneous administration, in such amount that the dose amounted to 2 ml/kg, and for oral administration, in distilled water (pH 7.4) so that the dose amounted to 5 ml/kg; and indometacin (as comparative drug) was suspended in 0.5% methyl cellulose solution so that the dose amounted to 5 ml/kg. Each rat was weighed at the first day of starting the administration of the compound to be tested and at the last day of the administration of the compound, and the difference of the weight there between (ΔB.W.) was obtained.
(§3) The results for each group were expressed in terms of mean ±S.E. (standard error) and comparison was made among the groups by testing by one-way analysis of variance. The significance level was taken at 5%.

adjuvant arthritis [4] = assay: Experiment (3)-II: prophylactic effect on adjuvant arthritis in rats; type: in vivo, male Lewis rats; conditions: sc; for Thickness of Paw, Left: adjuvant-injected paw; for Thickness of Paw, Right: opposite paw
Description: as §1
0.05 ml of the suspension of dry dead bacilli of Mycobacterium butyricum as suspended in liquid paraffin in a proportion of 6 mg/ml was subcutaneously injected to male Lewis rats (6 to 7-week) in the left hind paw. After the adjuvant injection, the compound to be tested was administered to the rats once a day for 21 days. Next day after the last administration, the thickness of the both hind paws of the rats was measured.
as §2, §3

[5] = tested on: hypercalcemia induced by administration of parathyroid hormone (PTH); assay: Inhibitory effect on hypercalcemia induced by PTH in rats (serum Ca++); type: in vivo, male Wistar rats; conditions: mean ± S.E.
Description: Rats of hypercalcemia induced by administration of parathyroid hormone (hereinafter referred to as "PTH") were used, and the decrement of the serum calcium amount by administration of the compound was measured.
30 μg/kg of human 1-34 PTH (manufactured by Peptide Laboratory) which was dissolved in a 0.1% BSA (bovine serum albumin)-containing physiological saline (content of the PTH is 6 μg/ml) was intravenously injected in an amount of 30 μg/kg (5 ml/kg as the solution) to 5-week male Wistar rats which had been fasting for 20 hours. Only 0.1% BSA-containing physiological saline was injected to the normal control group in the same manner. 45 minutes after the PTH injection, the rats were etherized and then subjected to celiotomy, whereby the blood was collected from the abdominal cava with a vacuum blood-collecting tube. The blood collected was immediately centrifuged by 3000 rpm, at 4° C. for 10 minutes to isolate the serum. The ionized calcium (Ca^++) concentration in the serum was immediately measured with a Ca^++ meter (Sera 250, manufactured by Horiba Manufacturing Co.).
The compounds of the present invention were dissolved using sodium hydroxide and hydrochloric acid, in physiological saline (pH 7.4), for subcutaneous administration, in such amounts that the dose amounted to 2 ml/kg, and for oral administration, in distilled water (pH 7.4) so that the dose amounted to 5 ml/kg. They were administered 24 or 72 hours before the PTH injection. A physiological saline or a distilled water was administered to the normal control group and the control group, in the same manner. Salmon calcitonin (SCT, manufactured by Armour Co.) was dissolved in physiological saline so that the dose amounted to 2 ml/kg, and then subcutaneously administered 30 minutes before the PTH injection.
The results for each group were expressed in terms of mean±S.E. (standard error) and comparison was made among the groups by testing by one-way analysis of variance. The significance level was taken at 5%.

[6] = sc, 10 mg/kg once a day 14 days
[7] = po, 10 mg/kg once a day 14 days
[8] = po, 30 mg/kg once a day 14 days
[9] = po, 100 mg/kg once a day 14 days, 100 mg/kg
[10] = sc, 0.1 mg/kg once a day 14 days
[11] = sc, 0.3 mg/kg once a day 14 days
[12] = sc, 1.0 mg/kg once a day 14 days
[13] = sc, 3.0 mg/kg once a day 14 days

Cc1cc(NC(P(=O)(O)O)P(=O)(O)O)no1 [Manufacture Example 1, [(5-methyl-3-isoxazolyl)amino]methylene-bis(phosphonic acid)]
Left humerus Ashed weight ([1]; oral, 10 mg/kg): 54.9 ± 1.3 mg
Left humerus Ashed weight / Dry weight ([1]; oral, 10 mg/kg): 53.4 ± 0.3%
Left humerus Dry weight ([1]; oral, 10 mg/kg): 102.8 ± 2.2 mg
Left humerus Ashed weight ([1]; oral, 30 mg/kg): 61.0 ± 1.0 mg
Left humerus Ashed weight / Dry weight ([1]; oral, 30 mg/kg): 54.4 ± 0.3%
Left humerus Dry weight ([1]; oral, 30 mg/kg): 112.1 ± 1.4 mg
Left humerus Ashed weight ([1]; oral, 100 mg/kg): 68.9 ± 1.3 mg
Left humerus Ashed weight / Dry weight ([1]; oral, 100 mg/kg): 55.6 ± 0.2%
Left humerus Dry weight ([1]; oral, 100 mg/kg): 123.9 ± 2.3 mg
Left humerus Ashed weight ([1]; sc, 0.1 mg/kg): 64.9 ± 1.2 mg
Left humerus Ashed weight / Dry weight ([1]; sc, 0.1 mg/kg): 56.9 ± 0.1%
Left humerus Dry weight ([1]; sc, 0.1 mg/kg): 113.9 ± 2.0 mg
Left humerus Ashed weight ([1]; sc, 0.3 mg/kg): 65.4 ± 1.6 mg
Left humerus Ashed weight / Dry weight ([1]; sc, 0.3 mg/kg): 57.2 ± 0.3%
Left humerus Dry weight ([1]; sc, 0.3 mg/kg): 114.4 ± 2.6 mg
Left humerus Ashed weight ([1]; sc, 1.0 mg/kg): 70.1 ± 1.1 mg
Left humerus Ashed weight / Dry weight ([1]; sc, 1.0 mg/kg): 57.8 ± 0.4%
Left humerus Dry weight ([1]; sc, 1.0 mg/kg): 121.3 ± 2.1 mg
Difference of Bone Ash Content (b) ([1]; sc, 3 mg/kg once a day 14 days): 4.8 ± 0.5 mg
Difference of Bone Weight (a) ([1]; sc, 3 mg/kg once a day 14 days): 8.0 ± 1.0 mg
Difference of Bone Ash Content (b) [1, 6]: 1.7 ± 0.5 mg
Difference of Bone Weight (a) [1, 6]: 3.2 ± 0.7 mg
mortality [2]: no rats died
Thickness of Paw (average of right and left paws) (adjuvant arthritis [3]; [7]): 1435 ± 49 × 0.01 mm
ΔB.W. (adjuvant arthritis [3]; [7]): 23.3 ± 0.9 g
Thickness of Paw (average of right and left paws) (adjuvant arthritis [3]; [8]): 1296 ± 45 × 0.01 mm
ΔB.W. (adjuvant arthritis [3]; [8]): 32.8 ± 1.7 g
Thickness of Paw (average of right and left paws) (adjuvant arthritis [3]; [9]): 1131 ± 36 × 0.01 mm and 1083 ± 36 × 0.01 mm
ΔB.W. (adjuvant arthritis [3]; [9]): 50 ± 3 g and 43.3 ± 2.0 g
Thickness of Paw (average of right and left paws) (adjuvant arthritis [3]; [10]): 1258 ± 31 × 0.01 mm
ΔB.W. (adjuvant arthritis [3]; [10]): 40 ± 2 g
Thickness of Paw (average of right and left paws) (adjuvant arthritis [3]; [11]): 1102 ± 36 × 0.01 mm
ΔB.W. (adjuvant arthritis [3]; [11]): 50 ± 2 g
Thickness of Paw (average of right and left paws) (adjuvant arthritis [3]; [12]): 956 ± 36 × 0.01 mm
ΔB.W. (adjuvant arthritis [3]; [12]): 56 ± 4 g
Thickness of Paw (average of right and left paws) (adjuvant arthritis [3]; [13]): 974 ± 32 × 0.01 mm
ΔB.W. (adjuvant arthritis [3]; [13]): 56 ± 1 g
ΔB.W. (adjuvant arthritis [4]; 0.1 mg/kg once a day 21 days): 238 ± 2 g
Thickness of Paw, Left (adjuvant arthritis [4]; 0.1 mg/kg once a day 21 days): 1277 ± 19 × 0.01 mm
Thickness of Paw, Right (adjuvant arthritis [4]; 0.1 mg/kg once a day 21 days): 1279 ± 27 × 0.01 mm
ΔB.W. (adjuvant arthritis [4]; 0.3 mg/kg once a day 21 days): 239 ± 2 g
Thickness of Paw, Left (adjuvant arthritis [4]; 0.3 mg/kg once a day 21 days): 1158 ± 12 × 0.01 mm
Thickness of Paw, Right (adjuvant arthritis [4]; 0.3 mg/kg once a day 21 days): 1107 ± 25 × 0.01 mm
ΔB.W. (adjuvant arthritis [4]; 1.0 mg/kg once a day 21 days): 233 ± 3 g
Thickness of Paw, Left (adjuvant arthritis [4]; 1.0 mg/kg once a day 21 days): 1174 ± 14 × 0.01 mm
Thickness of Paw, Right (adjuvant arthritis [4]; 1.0 mg/kg once a day 21 days): 1110 ± 28 × 0.01 mm
Serum Ca++ ([5]; oral, 30 mg/kg, 72 hours before PTH injection): 1.48 ± 0.01 m mole/liter
Serum Ca++ ([5]; oral, 100 mg/kg, 24 hours before PTH injection): 1.44 ± 0.02 m mole/liter
Serum Ca++ ([5]; oral, 100 mg/kg, 72 hours before PTH injection): 1.16 ± 0.03 m mole/liter
Serum Ca++ ([5]; oral, 300 mg/kg, 24 hours before PTH injection): 1.41 ± 0.01 m mole/liter
Serum Ca++ ([5]; sc, 0.3 mg/kg, 24 hours before PTH injection): 1.43 ± 0.02 m mole/liter
Serum Ca++ ([5]; sc, 1.0 mg/kg, 24 hours before PTH injection): 1.40 ± 0.01 m mole/liter
Serum Ca++ ([5]; sc, 3.0 mg/kg, 24 hours before PTH injection): 1.36 ± 0.02 m mole/liter
